Measured values reported in PMC9154810, “Selective inhibition of carbonic anhydrase IX by sulphonylated 1,2,3-triazole incorporated benzenesulphonamides capable of inducing apoptosis” (Journal of Enzyme Inhibition and Medicinal Chemistry, 2022).

How the values were obtained:
[1] = biological target: hCA I (Homo sapiens, UniProt P00915); test: stopped-flow CO2 hydrase assay, hCA I; conditions: mean from three assays, stopped-flow technique, errors ± 5–10%
Description: (§1) An Sx.18Mv-R Applied Photophysics (Oxford, UK) stopped-flow instrument was used to assay the catalytic activity of various CA isozymes for CO2 hydration reaction.[21]

[2] = biological target: hCA II (Homo sapiens, UniProt P00918); test: stopped-flow CO2 hydrase assay, hCA II
Description: as §1

[3] = biological target: hCA IV (Homo sapiens, UniProt P22748); test: stopped-flow CO2 hydrase assay, hCA IV
Chain of hCA IV (P22748 19-312): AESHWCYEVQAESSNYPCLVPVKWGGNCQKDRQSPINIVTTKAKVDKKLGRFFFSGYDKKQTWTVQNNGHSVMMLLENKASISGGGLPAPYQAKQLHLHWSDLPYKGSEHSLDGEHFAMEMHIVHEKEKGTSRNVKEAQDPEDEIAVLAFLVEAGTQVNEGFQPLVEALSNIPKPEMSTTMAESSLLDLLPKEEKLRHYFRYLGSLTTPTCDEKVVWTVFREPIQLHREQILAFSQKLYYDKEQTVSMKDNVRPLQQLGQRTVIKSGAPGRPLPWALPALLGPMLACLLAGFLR
Description: as §1

[4] = biological target: hCA IX (Homo sapiens, UniProt Q16790); test: stopped-flow CO2 hydrase assay, hCA IX; conditions: for Selectivity index I/IX: ratio KI hCA I / KI hCA IX; for Selectivity index II/IX: ratio KI hCA II / KI hCA IX
Description: as §1

Chain of hCA I (P00915 whole entry): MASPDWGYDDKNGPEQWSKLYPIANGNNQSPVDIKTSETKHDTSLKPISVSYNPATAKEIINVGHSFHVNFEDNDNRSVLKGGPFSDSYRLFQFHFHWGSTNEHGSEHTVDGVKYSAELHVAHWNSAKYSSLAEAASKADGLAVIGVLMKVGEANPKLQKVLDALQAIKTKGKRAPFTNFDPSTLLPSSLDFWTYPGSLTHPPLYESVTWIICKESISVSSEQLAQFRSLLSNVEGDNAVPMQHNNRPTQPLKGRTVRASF

| melting point [°C] | Ki [1] [nM] | Ki [2] [nM] | Ki [3] [nM] | Ki [4] [nM] | Selectivity index I/IX [4] | Selectivity index II/IX [4] | Structure (SMILES) |
| --- | --- | --- | --- | --- | --- | --- | --- |
| 282 to 284 | 434 | 9.2 | 94.8 | 27.1 | 16.00 | 0.34 | NS(=O)(=O)c1ccc(-n2nnc(S(=O)(=O)c3ccccc3)c2-c2cccc(Br)c2)cc1 [Compound 9f, 4-(5-(3-bromophenyl)-4-(phenylsulphonyl)-1H-1,2,3-triazol-1-yl)benzenesulphonamide] |
|  | 6900 | 884 | 1680 | 26.7 |  |  | NS(=O)(=O)c1cccc(-n2nnc(S(=O)(=O)c3ccccc3)c2-c2cccc([N+](=O)[O-])c2)c1 [Compound 10j, 3-(5-(3-nitrophenyl)-4-(phenylsulphonyl)-1H-1,2,3-triazol-1-yl)benzenesulphonamide] |
|  | 285 | 4.9 | 84.7 | 32.4 |  |  | NS(=O)(=O)c1ccc(-n2nnc(S(=O)(=O)c3ccccc3)c2-c2ccc([N+](=O)[O-])cc2)cc1 [Compound 9i, 4-(5-(4-nitrophenyl)-4-(phenylsulphonyl)-1H-1,2,3-triazol-1-yl)benzenesulphonamide] |
|  | 45.4 | 6.1 | 89.6 | 26.3 |  |  | NS(=O)(=O)c1ccc(-n2nnc(S(=O)(=O)c3ccccc3)c2-c2cccc([N+](=O)[O-])c2)cc1 [Compound 9j, 4-(5-(3-nitrophenyl)-4-(phenylsulphonyl)-1H-1,2,3-triazol-1-yl)benzenesulphonamide] |
|  | 868 | 35.2 | 64.4 | 27 |  |  | NS(=O)(=O)c1cccc(-n2nnc(S(=O)(=O)c3ccccc3)c2-c2ccc([N+](=O)[O-])cc2)c1 [Compound 10i, 3-(5-(4-nitrophenyl)-4-(phenylsulphonyl)-1H-1,2,3-triazol-1-yl)benzenesulphonamide] |
|  | 454 | 119 | 78.9 | 22.8 |  |  | NS(=O)(=O)c1cccc(-n2nnc(S(=O)(=O)c3ccccc3)c2-c2ccc(F)cc2)c1 [Compound 10c, 3-(5-(4-fluorophenyl)-4-(phenylsulphonyl)-1H-1,2,3-triazol-1-yl)benzenesulphonamide] |

Continued, molecule first:

| Structure (SMILES) | melting point [°C] | Ki [1] [nM] | Ki [2] [nM] | Ki [3] [nM] | Ki [4] [nM] | Selectivity index I/IX [4] | Selectivity index II/IX [4] |
| --- | --- | --- | --- | --- | --- | --- | --- |
| Cc1ccc(-c2c(S(=O)(=O)c3ccccc3)nnn2-c2ccc(S(N)(=O)=O)cc2)cc1 [Compound 9b, 4-(4-(phenylsulphonyl)-5-(p-tolyl)-1H-1,2,3-triazol-1-yl)benzenesulphonamide] | 205 to 207 | 767 | 7.8 | 82.1 | 30.9 |  | 0.25 |
| Cc1ccc(-c2c(S(=O)(=O)c3ccccc3)nnn2-c2cccc(S(N)(=O)=O)c2)cc1 [Compound 10b, 3-(4-(phenylsulphonyl)-5-(p-tolyl)-1H-1,2,3-triazol-1-yl)benzenesulphonamide] | 186 to 188 | 566 | 21.8 | 347 | 21.2 | 26.71 | 1.03 |
| NS(=O)(=O)c1cccc(-n2nnc(S(=O)(=O)c3ccccc3)c2-c2ccccc2)c1 [Compound 10a, 3-(5-phenyl-4-(phenylsulphonyl)-1H-1,2,3-triazol-1-yl)benzenesulphonamide] | 172 to 174 | 607 | 161 | 78.6 | 26 | 23.35 | 6.20 |
| COc1ccc(-c2c(S(=O)(=O)c3ccccc3)nnn2-c2cccc(S(N)(=O)=O)c2)cc1 [Compound 10g, 3-(5-(4-methoxyphenyl)-4-(phenylsulphonyl)-1H-1,2,3-triazol-1-yl)benzenesulphonamide] |  | 509 | 44.3 | 84 | 24.1 |  |  |
